# PubChem BioAssay AID206 (DTP/NCI, 2004)
# Where “and” joins values, the source holds several entries; their conditions need not be identical. Equal entries are not always repeated. Results filed as inconclusive are left out.
# Test system: nude mice, HT29 intrarenal xenograft, tumor weight T/C
# Test: NCI In Vivo Anticancer Drug Screen. Data for tumor model HT29;CX-1 Human Adenocarcinoma (MER+) (intrarenal inoculation) in NU/NU Swiss (nude) mice
# Settings: endpoint: mean tumor weight change, higher = larger tumour
# In short: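 Tumor-bearing mice received test compound or vehicle, and tumor size or survival was recorded. Values are the treated-group measurement divided by the vehicle-treated control measurement.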
# [1] = dose: 600.0 mg/kg/injection, schedule: Q04DX004 (sc), vehicle: saline
# [2] = dose: 1200.0 mg/kg/injection, schedule: Q04DX004 (sc), vehicle: saline
# [3] = dose: 100.0 mg/kg/injection, schedule: Q04DX004 (sc), vehicle: saline with Tween-80
# [4] = dose: 200.0 mg/kg/injection, schedule: Q04DX004 (sc), vehicle: saline with Tween-80
# [5] = dose: 400.0 mg/kg/injection, schedule: Q04DX004 (sc), vehicle: saline with Tween-80
# [6] = dose: 75.0 mg/kg/injection, schedule: Q04DX004 (sc), vehicle: saline with Tween-80
# [7] = dose: 150.0 mg/kg/injection, schedule: Q04DX004 (sc), vehicle: saline with Tween-80
# [8] = dose: 300.0 mg/kg/injection, schedule: Q04DX004 (sc), vehicle: saline with Tween-80
# [9] = dose: 600.0 mg/kg/injection, schedule: Q04DX004 (sc), vehicle: saline with Tween-80
# [10] = dose: 1200.0 mg/kg/injection, schedule: Q04DX004 (sc), vehicle: saline with Tween-80
# [11] = dose: 300.0 mg/kg/injection, schedule: Q04DX004 (sc), vehicle: suspension in saline
# [12] = dose: 600.0 mg/kg/injection, schedule: Q04DX004 (sc), vehicle: suspension in saline
smiles,measurement,setting,value
CC(=O)CC(=O)CCC(=O)O,T/C,"dose: 150.0 mg/kg/injection, schedule: Q04DX004 (sc), vehicle: saline",111 % of control
same,T/C,[1],113 % of control
same,T/C,[2],104 % of control
C1OCN2CSCC12 (stereo not drawn),T/C,[3],39 % of control
same,T/C,[4],80 % of control
same,T/C,[5],46 % of control
Nc1nc(=O)n(C2OC(CO)C(O)C2O)cc1F (stereo not drawn),T/C,"dose: 150.0 mg/kg/injection, schedule: Q04DX004 (ip), vehicle: saline",122 % of control
same,T/C,"dose: 300.0 mg/kg/injection, schedule: Q04DX004 (ip), vehicle: saline",56 % of control
same,T/C,"dose: 600.0 mg/kg/injection, schedule: Q04DX004 (ip), vehicle: saline",83 % of control
same,T/C,[1],26 % of control
same,T/C,"dose: 1200.0 mg/kg/injection, schedule: Q04DX004 (ip), vehicle: saline",42 % of control
same,T/C,[2],11 % of control
Nc1cccc(=O)[nH]1,T/C,"dose: 300.0 mg/kg/injection, schedule: Q04DX004 (sc), vehicle: saline",115 % of control
same,T/C,[1],96 % of control
same,T/C,[2],87 % of control
same,T/C,"dose: 2400.0 mg/kg/injection, schedule: Q04DX004 (sc), vehicle: saline",79 % of control
CC[C@]1(O)C[C@H]2CN(CCc3c([nH]c4ccccc34)[C@@](C(=O)OC)(c3cc4c(cc3OC)N(C)[C@H]3[C@@](O)(C(=O)OC)[C@H](OC(C)=O)[C@]5(CC)C=CCN6CC[C@]43[C@@H]65)C2)C1,T/C,"dose: 0.25 mg/kg/injection, schedule: Q01DX010 (sc), vehicle: saline",76 % of control
same,T/C,"dose: 0.5 mg/kg/injection, schedule: Q01DX010 (sc), vehicle: saline",88 % of control
same,T/C,"dose: 1.0 mg/kg/injection, schedule: Q01DX010 (sc), vehicle: saline",60 % of control
COc1cccc2c1C(=O)c1c(O)c3c(c(O)c1C2=O)C[C@@](O)(/C(CO)=N/NC(=O)c1ccc(Cl)c(Cl)c1)C[C@@H]3OC1CC(N)C(O)C(C)O1 (stereo partly drawn),T/C,"dose: 4.0 mg/kg/injection, schedule: Q01DX010 (sc), vehicle: water",226 % of control
same,T/C,"dose: 8.0 mg/kg/injection, schedule: Q01DX010 (sc), vehicle: water",88 % of control
same,T/C,"dose: 20.0 mg/kg/injection, schedule: Q04DX004 (sc), vehicle: water",113 % of control
same,T/C,"dose: 40.0 mg/kg/injection, schedule: Q04DX004 (sc), vehicle: water",59 % of control
CS(=O)(=O)c1ncc(Br)cn1,T/C,"dose: 62.5 mg/kg/injection, schedule: Q04DX004 (sc), vehicle: saline",83 % of control
same,T/C,[6],99 % of control
same,T/C,"dose: 125.0 mg/kg/injection, schedule: Q04DX004 (sc), vehicle: saline",109 % of control
same,T/C,[7],109 % of control
same,T/C,"dose: 250.0 mg/kg/injection, schedule: Q04DX004 (sc), vehicle: saline",92 % of control
same,T/C,[8],57 % of control
same,T/C,"dose: 500.0 mg/kg/injection, schedule: Q04DX004 (sc), vehicle: saline",89 % of control
COc1ccc(C(=O)c2no[n+]([O-])c2C(=O)c2ccc(OC)cc2)cc1,T/C,[4],182 % of control
same,T/C,[5],117 % of control
same,T/C,"dose: 800.0 mg/kg/injection, schedule: Q04DX004 (sc), vehicle: saline with Tween-80",71 % of control
same,T/C,"dose: 1600.0 mg/kg/injection, schedule: Q04DX004 (sc), vehicle: saline with Tween-80",83 % of control
C1CC[N-]CC1.[Cl][Pt+2][Cl].[NH-]C1CC1,T/C,"dose: 50.0 mg/kg/injection, schedule: Q04DX004 (sc), vehicle: water",51 % of control and 54 % of control
same,T/C,"dose: 100.0 mg/kg/injection, schedule: Q04DX004 (sc), vehicle: water",17 % of control
O=C(Nc1nncs1)c1cccs1,T/C,"dose: 50.0 mg/kg/injection, schedule: Q04DX004 (sc), vehicle: saline with Tween-80",61 % of control
same,T/C,[3],93 % of control
same,T/C,[4],72 % of control
same,T/C,[8],106 % of control
same,T/C,[5],95 % of control
same,T/C,[9],121 % of control
same,T/C,[10],110 % of control
C=C(C)[C@H]1Cc2c(ccc3c2O[C@@H]2COc4cc(OC)c(OC)cc4[C@@H]2C3=O)O1,T/C,"dose: 2.0 mg/kg/injection, schedule: Q01DX010 (sc), vehicle: saline with Tween-80",161 % of control
same,T/C,"dose: 4.0 mg/kg/injection, schedule: Q01DX010 (sc), vehicle: saline with Tween-80",29 % of control
same,T/C,"dose: 8.0 mg/kg/injection, schedule: Q01DX010 (sc), vehicle: saline with Tween-80",57 % of control
CC(C)CCCCCCCCCCCCC(=O)NCC(=O)NC1C(O)C(O)C(Nc2ncnc3nc[nH]c23)OC1C(O)CO (stereo not drawn),T/C,"dose: 0.75 mg/kg/injection, schedule: Q04DX004 (sc), vehicle: suspension in saline",85 % of control
same,T/C,"dose: 0.8 mg/kg/injection, schedule: Q01DX010 (sc), vehicle: saline",21 % of control and 24 % of control
same,T/C,"dose: 1.5 mg/kg/injection, schedule: Q04DX004 (sc), vehicle: suspension in saline",47 % of control
same,T/C,"dose: 3.0 mg/kg/injection, schedule: Q04DX004 (sc), vehicle: suspension in saline",10 % of control and 23 % of control
same,T/C,"dose: 6.0 mg/kg/injection, schedule: Q04DX004 (sc), vehicle: suspension in saline",15 % of control
CC(C)CC(=O)NC(C(=O)NC(C(=O)NC(CC(C)C)C(O)CC(=O)NC(C)C(=O)NC(CC(C)C)C(O)CC(=O)O)C(C)C)C(C)C (stereo not drawn),T/C,"dose: 150.0 mg/kg/injection, schedule: Q04DX004 (sc), vehicle: Klucel (hydroxypropylcellulose) (HPC)",102 % of control
same,T/C,"dose: 300.0 mg/kg/injection, schedule: Q04DX004 (sc), vehicle: Klucel (hydroxypropylcellulose) (HPC)",87 % of control
same,T/C,"dose: 600.0 mg/kg/injection, schedule: Q04DX004 (sc), vehicle: Klucel (hydroxypropylcellulose) (HPC)",69 % of control
Brc1ccc(C[N+]23CN4CN(CN(C4)C2)C3)cc1,T/C,[7],69 % of control
same,T/C,[8],101 % of control
NC(=S)N/N=C/c1ccc(OC(=O)COc2ccc(Cl)cc2)cn1,T/C,[8],103 % of control
same,T/C,[9],150 % of control
COC1C(/C=C/C(C)=O)OC2OC(C)(C)OC21 (stereo not drawn),T/C,"dose: 75.0 mg/kg/injection, schedule: Q04DX004 (sc), vehicle: suspension in saline",74 % of control
same,T/C,"dose: 150.0 mg/kg/injection, schedule: Q04DX004 (sc), vehicle: suspension in saline",106 % of control
same,T/C,[11],54 % of control
same,T/C,[12],20 % of control
COC(=O)C(N)Cc1ccc(O)c(O)c1 (stereo not drawn),T/C,"dose: 225.0 mg/kg/injection, schedule: Q04DX004 (sc), vehicle: saline",74 % of control
same,T/C,"dose: 450.0 mg/kg/injection, schedule: Q04DX004 (sc), vehicle: saline",104 % of control
same,T/C,"dose: 900.0 mg/kg/injection, schedule: Q04DX004 (sc), vehicle: saline",77 % of control
same,T/C,"dose: 1800.0 mg/kg/injection, schedule: Q04DX004 (sc), vehicle: saline",55 % of control
CN(C)C1C(=O)C(C(=O)NP(=O)(NCCCO)N(CCCl)CCCl)=C(O)C2(O)C(=O)C3=C(O)c4c(O)cccc4C(C)(O)C3CC12 (stereo not drawn),T/C,[6],89 % of control
same,T/C,[8],7 % of control and 32 % of control
same,T/C,[9],-99 % of control
Nc1ncn(C2OC(CO)C(O)C2O)c(=O)n1 (stereo not drawn),T/C,"dose: 0.19 mg/kg/injection, schedule: Q01DX010 (sc), vehicle: saline",212 % of control
same,T/C,"dose: 0.38 mg/kg/injection, schedule: Q01DX010 (sc), vehicle: saline",172 % of control
same,T/C,"dose: 0.75 mg/kg/injection, schedule: Q01DX010 (sc), vehicle: saline",96 % of control
same,T/C,"dose: 5.0 mg/kg/injection, schedule: Q04DX004 (sc), vehicle: saline",66 % of control
same,T/C,"dose: 10.0 mg/kg/injection, schedule: Q04DX004 (sc), vehicle: saline",48 % of control and 49 % of control
same,T/C,"dose: 100.0 mg/kg/injection, schedule: Q04DX004 (sc), vehicle: saline",62 % of control
same,T/C,"dose: 200.0 mg/kg/injection, schedule: Q04DX004 (sc), vehicle: saline",85 % of control
same,T/C,"dose: 200.0 mg/kg/injection, schedule: Q04DX004 (sc), vehicle: suspension in saline",98 % of control
same,T/C,[11],24 % of control
same,T/C,"dose: 400.0 mg/kg/injection, schedule: Q04DX004 (sc), vehicle: saline",38 % of control
same,T/C,[12],79 % of control
same,T/C,"dose: 800.0 mg/kg/injection, schedule: Q04DX004 (sc), vehicle: saline",7 % of control
same,T/C,"dose: 800.0 mg/kg/injection, schedule: Q04DX004 (sc), vehicle: suspension in saline",29 % of control and 30 % of control
same,T/C,"dose: 1200.0 mg/kg/injection, schedule: Q04DX004 (sc), vehicle: suspension in saline",7 % of control
same,T/C,"dose: 1600.0 mg/kg/injection, schedule: Q04DX004 (sc), vehicle: suspension in saline",11 % of control
CCC1=C2C(=O)c3ccccc3C2=C(C)S(=O)(=O)O1,T/C,[7],70 % of control
same,T/C,[8],50 % of control
same,T/C,[10],89 % of control
Nc1ncnc2c1nnn2C1OC(CO)C(O)C1O (stereo not drawn),T/C,"dose: 75.0 mg/kg/injection, schedule: Q04DX004 (sc), vehicle: Klucel (hydroxypropylcellulose) (HPC)",41 % of control
